Source: the SangsterLogP compilation

test: method code SF, from DOI: 10.1021/jm00226a007, PMID: 817022; settings: pH 7.4

Row | logD | Compound
1 | -0.1 | COc1cc(C(=O)NN)ccn1

test: method code SF-AS, from DOI: 10.1021/jm00226a007, PMID: 817022; settings: pH 7.4

Row | Compound | logD
2 | CCCc1cc(C(=O)NN)ccn1 | 0.63
3 | NNC(=O)c1ccnc(N)c1 | -0.98
4 | CCN(CC)c1cc(C(=O)NN)ccn1 | 1.12
5 | CC(=O)Nc1cc(C(=O)NN)ccn1 | -1.25
6 | Cc1cc(C(=O)NN)ccn1 | -0.37
7 | NNC(=O)c1ccnc([N+](=O)[O-])c1 | -0.76
8 | CC(=O)NCc1cc(C(=O)NN)ccn1 | -1.58
9 | CCc1cc(C(=O)NN)ccn1 | 0.12
10 | NNC(=O)c1ccnc(Cc2ccccc2)c1 | 1.01
11 | NNC(=O)c1ccnc(Br)c1 | 0.25

Results, then the compound that gave them:

Row | logD | Compound
12 | 1.36 | NNC(=O)c1ccnc(-c2ccccc2)c1
13 | 0.48 | CCOc1cc(C(=O)NN)ccn1
14 | 0.11 | NNC(=O)c1ccnc(Cl)c1
15 | 0.52 | NNC(=O)c1ccnc(I)c1
16 | 1.02 | CC(C)Cc1cc(C(=O)NN)ccn1
17 | -0.11 | NNC(=O)c1ccnc(F)c1
